Source: the supplement of paper PMC12137928
Structures can show the parent of a compound that is named as a salt.

Test system: HCT116
Settings: 72 h
Method in brief: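 For IC50 and maximal efficacy, four-parameter Hill fits were used. Input values were CellTiter-Glo luminescence from HCT116 cells seeded at 250 per well in 1536-well plates, normalized to vehicle (0%) and positive control (-100%). Pattern correction followed normalization.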

| Structure (SMILES) | IC50 cell viability (ICRF193 0 nM) [µM] | IC50 cell viability (ICRF193 200 nM) [µM] |
| --- | --- | --- |
| O=P(O)(O)O[C@H]1[C@H](OP(=O)(O)O)[C@@H](OP(=O)(O)O)[C@H](OP(=O)(O)O)[C@@H](OP(=O)(O)O)[C@H]1OP(=O)(O)O [Phytic acid] | > 45.8 | > 45.8 |
| CC1=C(C/C=C(\C)CCC[C@H](C)CCC[C@H](C)CCCC(C)C)C(=O)c2ccccc2C1=O [Phytonadione] | > 45.8 | > 45.8 |
| Nc1c(NC/C=C\COc2cc(CN3CCCCC3)ccn2)c(=O)c1=O [Pibutidine] | > 45.8 | > 45.8 |
| O=C(O)c1ccccn1 [Picolinic acid] | > 45.8 | > 45.8 |
| O=S(=O)(O)Oc1ccc(C(c2ccc(OS(=O)(=O)O)cc2)c2ccccn2)cc1 [Picosulfate sodium] | > 45.8 | > 45.8 |
| CC[C@@H]1C(=O)OC[C@@H]1Cc1cncn1C [Pilocarpine] | > 45.8 | > 45.8 |
| Cc1cccc(C)c1NC(=O)CC12CCCN1CCC2 [Pilsicainide] | > 45.8 | > 45.8 |
| C[C@@H]1C/C=C/C=C/C=C/C=C/[C@H](O[C@@H]2O[C@H](C)[C@@H](O)[C@H](N)[C@@H]2O)C[C@@H]2O[C@](O)(C[C@@H](O)C[C@H]3O[C@@H]3/C=C/C(=O)O1)C[C@H](O)[C@H]2C(=O)O [Pimaricin] | > 45.8 | > 45.8 |
| COc1ccc(-c2nc3cc(C4=NNC(=O)CC4C)ccc3[nH]2)cc1 (stereo not drawn) [Pimobendan] | > 45.8 | > 45.8 |
| CC(C)NCC(O)COc1cccc2[nH]ccc12 (stereo not drawn) [Pindolol] | > 45.8 | > 45.8 |
| CCc1ccc(CCOc2ccc(CC3SC(=O)NC3=O)cc2)nc1 (stereo not drawn) [Pioglitazone hydrochloride] | > 45.8 | > 45.8 |
| NC(=O)C1(N2CCCCC2)CCN(CCCC(=O)c2ccc(F)cc2)CC1 [Pipamperone dihydrochloride] | > 45.8 | > 45.8 |
| CC(=O)O[C@H]1C[C@@H]2CC[C@@H]3[C@H](CC[C@@]4(C)[C@H]3C[C@H](N3CC[N+](C)(C)CC3)[C@@H]4OC(C)=O)[C@@]2(C)C[C@@H]1N1CC[N+](C)(C)CC1 [Pipecuronium bromide] | > 45.8 | > 45.8 |
| CCn1cc(C(=O)O)c(=O)c2cnc(N3CCNCC3)nc21 [Pipemidic acid] | > 45.8 | > 45.8 |
| CCN1CCN(C(=O)N[C@@H](C(=O)N[C@@H]2C(=O)N3[C@@H]2SC(C)(C)[C@@H]3C(=O)O)c2ccccc2)C(=O)C1=O [Piperacillin sodium salt] | > 45.8 | > 45.8 |
| C1CNCCN1 [Piperazine] | > 45.8 | > 45.8 |
| CCN1CCCC(OC(=O)C(c2ccccc2)c2ccccc2)C1 (stereo not drawn) [Piperidolate hydrochloride] | > 45.8 | > 45.8 |
| O=C(OCCN1CCCCC1)C(O)(c1ccccc1)c1ccccc1 [Piperilate hydrochloride] | > 45.8 | > 45.8 |
| CC1CCCCN1CCCOC(=O)c1ccccc1 (stereo not drawn) [Piperocaine hydrochloride] | > 45.8 | > 45.8 |
| CCCCOCCOCCOCc1cc2c(cc1CCC)OCO2 [Piperonyl butoxide] | > 45.8 | > 45.8 |

| Structure (SMILES) | IC50 cell viability (ICRF193 0 nM) [µM] | IC50 cell viability (ICRF193 200 nM) [µM] |
| --- | --- | --- |
| O=C(CCBr)N1CCN(C(=O)CCBr)CC1 [Pipobroman] | > 45.8 | > 45.8 |
| CCCCCCCCCCCCCCCC(=O)OCCC1CCN(CCCN2c3ccccc3Sc3ccc(S(=O)(=O)N(C)C)cc32)CC1 [Pipothiazine palmitate] | > 45.8 | > 45.8 |
| NC(=O)CN1CCCC1=O [Piracetam] | > 45.8 | > 45.8 |
| CC(C)(C)NCC(O)c1ccc(O)c(CO)n1 (stereo not drawn) [Pirbuterol hydrochloride] | > 45.8 | > 45.8 |
| O=C(O)c1cc(O)c2c3nc4ccccc4oc-3cc(=O)c2n1 [Pirenoxine Sodium] | > 45.8 | > 45.8 |
| CN1CCN(CC(=O)N2c3ccccc3C(=O)Nc3cccnc32)CC1 [Pirenzepine] | > 45.8 | > 45.8 |
| NS(=O)(=O)c1cc(C(=O)O)cc(N2CCCC2)c1Oc1ccccc1 [Piretanide] | > 45.8 | > 45.8 |
| Cc1ccc(=O)n(-c2ccccc2)c1 [Pirfenidone] | > 45.8 | > 45.8 |
| CC[C@@H]1CCN[C@H](C(=O)N[C@@H]([C@H]2O[C@H](SC)[C@H](O)[C@@H](O)[C@H]2O)[C@H](C)Cl)C1 [Pirlimycin Hydrochloride] | > 45.8 | > 45.8 |
| CC1CCCC(C)N1CCCC(O)(c1ccccc1)c1ccccn1 (stereo not drawn) [Pirmenol] | > 45.8 | > 45.8 |
| CCN1CCC(=C2c3ccccc3CCc3ccccc32)C1C (stereo not drawn) [Piroheptine Hydrochloride] | > 45.8 | > 45.8 |
| CCn1cc(C(=O)O)c(=O)c2cnc(N3CCCC3)nc21 [Piromidic acid] | > 45.8 | > 45.8 |
| CN1C(C(=O)Nc2ccccn2)=C(O)c2ccccc2S1(=O)=O [Piroxicam] | > 45.8 | > 45.8 |
| Clc1ccc(CCCOCCCN2CCCCC2)cc1 [Pitolisant (hydrochloride)] | > 45.8 | > 45.8 |
| CC(C)(C)C(=O)OCOC(=O)[C@@H]1N2C(=O)[C@@H](NC(=O)[C@H](N)c3ccccc3)[C@H]2SC1(C)C [Pivampicillin] | > 45.8 | > 45.8 |
| CC(C)(C)C(=O)OCOC(=O)[C@@H]1N2C(=O)[C@@H](/N=C/N3CCCCCC3)[C@H]2SC1(C)C [Pivmecillinam] | > 45.8 | > 45.8 |
| CN1CCC(=C2c3ccccc3CCc3sccc32)CC1 [Pizotifen] | > 45.8 | > 45.8 |
| c1cc(CN2CCCNCCNCCCNCC2)ccc1CN1CCCNCCNCCCNCC1 [Plerixafor hydrochloride] | > 45.8 | > 45.8 |
| NCCC(=O)[N-][C@@H](Cc1c[nH]cn1)C(=O)[O-].[Zn+2] [Polaprezinc] | > 45.8 | > 45.8 |
| O=C(N[C@H]1N=C(c2ccccc2F)c2cccc3c2N(CC3)C1=O)c1cc2ccccc2[nH]1 [Pranazepide] | > 45.8 | > 45.8 |

The next lines start with the values.

| IC50 cell viability (ICRF193 0 nM) [µM] | IC50 cell viability (ICRF193 200 nM) [µM] | Structure (SMILES) |
| --- | --- | --- |
| > 45.8 | > 45.8 | CN1C(CSCC(F)(F)F)Nc2cc(Cl)c(S(N)(=O)=O)cc2S1(=O)=O (stereo not drawn) [Polythiazide] |
| > 45.8 | > 45.8 | Nc1cccc2c1C(=O)N(C1CCC(=O)NC1=O)C2=O (stereo not drawn) [Pomalidomide] |
| > 45.8 | > 45.8 | CC[C@@H]([C@H](C)O)n1ncn(-c2ccc(N3CCN(c4ccc(OC[C@@H]5CO[C@@](Cn6cncn6)(c6ccc(F)cc6F)C5)cc4)CC3)cc2)c1=O [Posaconazole] |
| > 45.8 | > 45.8 | CCCCCC[C@@H](O)C/C=C\CCCCCCCC(=O)O [Potassium ricinoleate] |
| > 45.8 | > 45.8 | C[n+]1ccccc1/C=N/O [Pralidoxime chloride] |
| > 45.8 | > 45.8 | CCCN[C@H]1CCc2nc(N)sc2C1 [Pramipexole hydrochloride] |
| > 45.8 | > 45.8 | CCCCOc1ccc(OCCCN2CCOCC2)cc1 [Pramoxine hydrochloride] |
| > 45.8 | > 45.8 | O=C(Nc1cccc2c(=O)cc(-c3nnn[nH]3)oc12)c1ccc(OCCCCc2ccccc2)cc1 [Pranlukast hydrate] |
| > 45.8 | > 45.8 | CC(C(=O)O)c1ccc2c(c1)Cc1cccnc1O2 (stereo not drawn) [Pranoprofen] |
| > 45.8 | > 45.8 | CC(=O)Oc1cc2c(s1)CCN(C(C(=O)C1CC1)c1ccccc1F)C2 (stereo not drawn) [Prasugrel] |
| > 45.8 | > 45.8 | CC[C@H](C)C(=O)O[C@H]1C[C@H](O)C=C2C=C[C@H](C)[C@H](CC[C@@H](O)C[C@@H](O)CC(=O)O)[C@H]21 [Pravastatin] |
| > 45.8 | > 45.8 | O=C(C1CCCCC1)N1CC(=O)N2CCc3ccccc3C2C1 (stereo not drawn) [Praziquantel] |
| > 45.8 | > 45.8 | C[C@]12C=CC(=O)C=C1CC[C@@H]1[C@@H]2[C@@H](O)C[C@@]2(C)[C@H]1CC[C@]2(O)C(=O)COP(=O)(O)O [Prednisolone Phosphate (sodium salt)] |
| > 45.8 | > 45.8 | CC(=O)OCC(=O)[C@@]1(O)CC[C@H]2[C@@H]3CCC4=CC(=O)C=C[C@]4(C)[C@H]3[C@@H](O)C[C@@]21C [Prednisolone acetate] |
| > 45.8 | > 45.8 | CC(C)=CCC/C(C)=C/CC/C(C)=C/C(=O)OCC(=O)[C@@]1(O)CC[C@H]2[C@@H]3CCC4=CC(=O)C=C[C@]4(C)[C@H]3[C@@H](O)C[C@@]21C [Prednisolone farnesylate] |
| > 45.8 | > 45.8 | C[C@]12C=CC(=O)C=C1CC[C@@H]1[C@@H]2[C@@H](O)C[C@@]2(C)[C@H]1CC[C@]2(O)C(=O)CO [Prednisolone] |
| > 45.8 | > 45.8 | C[C@]12C=CC(=O)C=C1CC[C@@H]1[C@@H]2C(=O)C[C@@]2(C)[C@H]1CC[C@]2(O)C(=O)CO [Prednisone] |
| > 45.8 | > 45.8 | C[C@]12C=CC(=O)C=C1CC[C@@H]1[C@@H]2[C@@H](O)C[C@@]2(C)[C@H]1CC[C@]2(O)C(=O)COC(=O)c1cccc(S(=O)(=O)O)c1 [Predocol] |
| > 45.8 | > 45.8 | C[C@H](O)[C@H]1CC[C@H]2[C@@H]3CC[C@@H]4C[C@H](O)CC[C@]4(C)[C@H]3CC[C@]12C [Pregnandiol] |
